# According to patent publication US20190300857A1, “UNDIFFERENTIATED STEM CELL-REMOVING AGENT, AND METHOD FOR REMOVING UNDIFFERENTIATED STEM CELLS” (KEIO UNIVERSITY, priority 2016, published 2019):
# Experiments:
# Type in all cases: cell-based
# [1] = test system: Ffl14: human induced pluripotent stem cell (human iPS cell) line; test: Culture of undifferentiated stem cell line in Orlistat-containing medium, ALP staining of living cells; details: Orlistat 0, 2, 4, 6, 8, 10 μM, 72 hours, StemFit or mTeSR1, FIG. 3
# Method: (§1) Orlistat (manufactured by Sigma, 04139) was added into StemFit medium (manufactured by AJINOMOTO) or mTeSR1 (manufactured by Stem Cell Technologies) so that each of a final concentration became concentrations as shown in FIG. 3 (2 μM, 4 μM, 6 μM, 8 μM, and 10 μM). Therefore a culture medium according to one embodiment of the present invention was obtained. The following three cell lines were cultured for 72 hours in each of a culture medium not containing Orlistat (0 μM) and the culture media containing Orlistat at each of the above final concentrations. • 253G4: human induced pluripotent stem cell (human iPS cell) line • Ffl14: human induced pluripotent stem cell (human iPS cell) line • H9: human embryonic stem cell (human ES cell) line In regard to the activity of alkaline phosphatase (ALP) that the cells have, after 72 hours of culture, AP staining was performed by color development with […] (registered trademark) alkaline phosphatase staining kit (Sigma 86-R), and cells stained red were confirmed as living cells.
# [2] = test system: H9: human embryonic stem cell (human ES cell) line; test: as above; details: Orlistat 0, 2, 4, 6, 8, 10 μM, 72 hours, StemFit or mTeSR1, FIG. 3
# Method: as §1
# [3] = test system: 253G4: human induced pluripotent stem cell (human iPS cell) line; test: as above; details: Orlistat 0, 2, 4, 6, 8, 10 μM, 72 hours, StemFit or mTeSR1, FIG. 3
# Method: as §1
# [4] = test system: human iPS cell line (253G4); test: Culture of human iPS cell line with Orlistat with or without palmitic acid, LIVE/DEAD Assay; details: Orlistat 0, 2, 6, 8 μM, 72 hours, FIGS. 13 to 14
# Method: Orlistat (manufactured by Sigma, 04139) was added into StemFit medium (manufactured by AJINOMOTO) or mTeSR1 (manufactured by Stem Cell Technologies) so that each of a final concentration became concentrations as shown in FIG. 13 (2 μM, 6 μM, and 8 μM). Therefore a culture medium according to one embodiment of the present invention was obtained. Media obtained by adding palmitic acid (final concentration 50 μM), carnitine (final concentration 0.5 mM), and BSA (final concentration 8.3 μM) to each of the culture medium (0 μM) not containing Orlistat and the culture media containing Orlistat at the above final concentrations; and media obtained by adding only carnitine (final concentration 0.5 mM) and BSA (final concentration 8.3 μM) thereto were prepared. The human iPS cell line (253G4) was cultured for 72 hours in each of the above-mentioned media. After 72 hours of culture, live cells were detected with LIVE/DEAD Assay (L3224, manufactured by Thermo Fisher Scientific).
# [5] = test system: undifferentiated stem cells expressing OCT4 in cell mixture of cardiomyocytes derived from human iPS cells and human iPS cells; test: Culture of cell mixture of iPS-derived cardiomyocytes and iPS cells in Orlistat-containing medium, OCT4 immunostaining; details: Orlistat 10 μM (Orlistat(+)); 72 hours; StemFit or mTeSR1; FIGS. 7 to 8
# Method: A cell mixture in a state in which purified and refined cardiomyocytes induced from human iPS cells and human iPS cells coexisted was prepared according to the procedure described above. In the cell mixture, immunostaining against OCT4 was performed. The cell mixture was cultured for 72 hours in StemFit medium (manufactured by AJINOMOTO) or mTeSR1 (manufactured by Stem Cell Technologies) containing Orlistat at a final concentration of 10 μM (Orlistat(+)). As a control, culture was carried out in the same manner in StemFit medium (manufactured by AJINOMOTO) or mTeSR1 (manufactured by Stem Cell Technologies) not containing Orlistat (Orlistat(−)). After culturing for 72 hours, cells expressing OCT4 were detected by immunostaining. In addition, the results of DAPI staining are also shown together. The results of three replicate tests in which the number of colonies of cells expressing Oct4 was quantified based on the results are shown in FIG. 8.
smiles,measurement,setting,value
"CCCCCCCCCCC[C@@H](C[C@@H]1OC(=O)[C@H]1CCCCCC)OC(=O)[C@H](CC(C)C)NC=O [Orlistat, N-formyl-L-leucine-(1S)-1-[[(2S,3S)-3-hexyl-4-oxo-2-oxetanyl]methyl]dodecyl ester]",cell death of undifferentiated stem cells (ALP staining),[1],cell death of each undifferentiated stem cell was induced in an Orlistat concentration-dependent manner
same,cell death of undifferentiated stem cells (ALP staining),[2],cell death of each undifferentiated stem cell was induced in an Orlistat concentration-dependent manner
same,cell death of undifferentiated stem cells (ALP staining),[3],cell death of each undifferentiated stem cell was induced in an Orlistat concentration-dependent manner
same,cell death of human iPS cells (LIVE/DEAD Assay),[4]; culture medium (BSA): only carnitine 0.5 mM and BSA 8.3 μM added,cell death of human iPS cells was induced in an Orlistat concentration-dependent manner
same,cell death of human iPS cells (LIVE/DEAD Assay),"[4]; culture medium (PA-BSA): palmitic acid 50 μM, carnitine 0.5 mM and BSA 8.3 μM added",cell death of human iPS cells was suppressed
same,residual undifferentiated stem cells expressing OCT4,[5],no residual undifferentiated stem cells expressing OCT4 were detected
